This is an account of results in US9034855B2, “Substituted phenylacetate and phenylpropane amides and use thereof” (Bayer Intellectual Property GmbH, priority 2010, dated 2015).

In one experiment the target is T1, human V1a receptor (Homo sapiens, UniProt P37288).
T1 construct: expressed in transfected cells; host or cells: CHO K1 (ATCC), constitutively expressing modified aequorin
The experiment is described as follows: Cellular in vitro assay for determining the vasopressin receptor activity (aequorin luminescence, recombinant CHO cells), human V1a. The experiment is classed as cell-based. The note with it: CHO cells expressing aequorin, transfected with human V1a receptor; agonist [Arg8]-vasopressin; read-out: IC50 hV1a. From the text: (§1) B-1. Cellular In Vitro Assay for Determining the Vasopressin Receptor Activity
(§2) The identification of agonists and antagonists of the V1a and V2 vasopressin receptors from humans and rats and also the quantification of the activity of the substances described here takes place using recombinant cell lines. These cells derive originally from a hamster's ovary epithelial cell (Chinese Hamster Ovary, CHO K1, ATCC: American Type Culture Collection, Manassas, Va. 20108, USA). The test cell lines constitutively express a modified form of the calcium-sensitive photoprotein aequorin, which, after reconstitution with the cofactor coelenterazine, emits light when there are increases in the free calcium concentration (Rizzuto R., Simpson A. W., Brini M., Pozzan T.; Nature 358 (1992) 325-327). In addition, the cells are stably transfected with the human or rat V1a or V2 receptors. In the case of the Gs-coupling V2 receptors, the cells are stably transfected with a further gene, which codes for the promiscuous Gα16 protein (Amatruda T. T., Steele D. A., Slepak V. Z., Simon M A., Proc. Na. Acad. Sci. USA 88 (1991), 5587-5591), either independently or as a fusion gene. The resulting vasopressin receptor test cells react to stimulation of the recombinantly expressed vasopressin receptors by intracellular release of calcium ions, which can be quantified by the resulting aequorin luminescence using a suitable luminometer (Milligan G., Marshall F., Rees S., Trends in Pharmaco. Sci. 17 (1996) 235-237).
(§3) On the day before the assay, the cells are plated out in culture medium (DMEM, 10% FCS, 2 mM glutamine, 10 mM HEPES) in 384-well microtiter plates and kept in a cell incubator (96% atmospheric humidity, 5% v/v carbon dioxide, 37° C.). On the day of the assay, the culture medium is replaced by a Tyrode solution (140 mM sodium chloride, 5 mM potassium chloride, 1 mM magnesium chloride, 2 mM calcium chloride, 20 mM glucose, 20 mM HEPES), which additionally contains the cofactor coelenterazine (50 μM), and the microtiter plate is then incubated for a further 3-4 hours. The test substances in various concentrations are placed for 10 to 20 minutes in the wells of the microtiter plate before the agonist [Arg8]-vasopressin is added, and the resulting light signal is measured immediately in the luminometer. The IC50 values are calculated using the GraphPad PRISM computer program (Version 3.02).
(§4) Table A below lists representative IC50 values for the compounds according to the invention transfected with the human V1a or V2 receptor: […]

A further experiment deals with T2, human V2 receptor (Homo sapiens, UniProt P30518).
T2 construct: expressed in transfected cells; host or cells: CHO K1 (ATCC), constitutively expressing modified aequorin, co-transfected with promiscuous G-alpha-16
The experiment is described as follows: Cellular in vitro assay for determining the vasopressin receptor activity (aequorin luminescence, recombinant CHO cells), human V2. The format is cell-based. The note with it: CHO cells expressing aequorin and Gα16, transfected with human V2 receptor; agonist [Arg8]-vasopressin; read-out: IC50 hV2.
Text: as §1, §2, §3, §4

T1 sequence (P37288 whole entry): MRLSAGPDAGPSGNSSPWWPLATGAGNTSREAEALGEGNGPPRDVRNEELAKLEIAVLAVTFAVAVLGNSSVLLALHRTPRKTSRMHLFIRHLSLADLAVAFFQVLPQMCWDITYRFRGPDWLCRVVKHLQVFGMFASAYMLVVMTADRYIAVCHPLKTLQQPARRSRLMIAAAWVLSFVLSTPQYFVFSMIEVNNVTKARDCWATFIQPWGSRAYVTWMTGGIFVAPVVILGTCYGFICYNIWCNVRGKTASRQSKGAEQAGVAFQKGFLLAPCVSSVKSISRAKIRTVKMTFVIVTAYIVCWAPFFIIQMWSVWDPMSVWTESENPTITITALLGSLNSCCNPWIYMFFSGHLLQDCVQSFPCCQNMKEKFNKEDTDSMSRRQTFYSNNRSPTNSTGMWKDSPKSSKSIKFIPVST
T2 sequence (P30518 whole entry): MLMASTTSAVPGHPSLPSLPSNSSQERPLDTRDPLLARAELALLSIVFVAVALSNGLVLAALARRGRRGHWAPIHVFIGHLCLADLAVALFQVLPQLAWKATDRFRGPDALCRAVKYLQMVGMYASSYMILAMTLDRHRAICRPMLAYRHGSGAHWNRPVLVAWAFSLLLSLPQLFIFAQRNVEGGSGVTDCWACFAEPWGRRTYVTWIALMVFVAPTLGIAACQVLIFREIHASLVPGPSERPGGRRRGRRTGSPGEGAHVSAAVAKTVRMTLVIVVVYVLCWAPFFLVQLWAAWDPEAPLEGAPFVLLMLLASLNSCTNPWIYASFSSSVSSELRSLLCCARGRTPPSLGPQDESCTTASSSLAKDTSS

A word on the IC50: it is the concentration that gives 50% inhibition. `CC(C)(NC(=O)C(NC(=O)Cn1nc(-c2ccc(Cl)cc2)n(CCC(F)(F)F)c1=O)c1ccccc1Cl)C(N)=O` (racemic) [Example 35, N^2-[(2-Chlorophenyl)({[3-(4-chlorophenyl)-5-oxo-4-(3,3,3-trifluoropropyl)-4,5-dihydro-1H-1,2,4-triazol-1-yl]acetyl}amino)acetyl]-2-methylalaninamide]: the IC50 came to 0.0089 µM at human V1a receptor and 0.655 µM at human V2 receptor.
For the molecule `CC(C)(NC(=O)C(NC(=O)Cn1nc(-c2ccc(Cl)cc2)n(CCC(F)(F)F)c1=O)c1ccccc1C(F)(F)F)C(N)=O` (racemic) [Example 32, N^2-{({[3-(4-Chlorophenyl)-5-oxo-4-(3,3,3-trifluoropropyl)-4,5-dihydro-1H-1,2,4-triazol-1-yl]acetyl}amino) [2-(trifluoromethyl)phenyl]acetyl}-2-methylalaninamide], the IC50 amounted to 0.0071 µM on human V1a receptor and 1.27 µM on human V2 receptor.
Turning to `CC(C)(NC(=O)C(NC(=O)Cn1nc(-c2ccc(Cl)cc2)n(C[C@H](O)C(F)(F)F)c1=O)c1cccc(C(F)(F)F)c1)C(=O)O` (single isomer, unassigned) [Example 25], the IC50 worked out at 0.502 µM on human V1a receptor and 0.282 µM at human V2 receptor.
As for `CC(C)(NC(=O)C(NC(=O)Cn1nc(-c2ccc(Cl)cc2)n(C[C@H](O)C(F)(F)F)c1=O)c1cccc(C(F)(F)F)c1)C(=O)O` (single isomer, unassigned) [Example 26], the IC50 at human V1a receptor came out at 0.0017 µM; on human V2 receptor it was 0.0023 µM.
As to `CC(C)(NC(=O)C[C@H](NC(=O)Cn1nc(-c2ccc(Cl)cc2)n(C[C@H](O)C(F)(F)F)c1=O)c1cccc(C(F)(F)F)c1)C(N)=O` [Example 40, N^2-{(3S)-3-[({3-(4-Chlorophenyl)-5-oxo-4-[(2S)-3,3,3-trifluoro-2-hydroxypropyl]-4,5-dihydro-1H-1,2,4-triazol-1-yl}acetyl)amino]-3-[3-(trifluoromethyl)phenyl]propanoyl}-2-methylalaninamide], the IC50 worked out at 0.0111 µM on human V1a receptor and 0.0081 µM at human V2 receptor.
Consider `O=C(C[C@H](NC(=O)Cn1nc(-c2ccc(Cl)cc2)n(C2CC2)c1=O)c1ccccc1C(F)(F)F)NCCO` [Example 55, (3S)-3-({[3-(4-Chlorophenyl)-4-cyclopropyl-5-oxo-4,5-dihydro-1H-1,2,4-triazol-1-yl]acetyl}-amino)-N-(2-hydroxyethyl)-3-[2-(trifluoromethyl)phenyl]propanamide], for which the IC50 at human V1a receptor was 0.006 µM; at human V2 receptor, 0.569 µM.
Consider `COC(=O)C(C)(C)NC(=O)C[C@H](NC(=O)Cn1nc(-c2ccc(Cl)cc2)n(C[C@H](O)C(F)(F)F)c1=O)c1cccc(C(F)(F)F)c1` [Example 38, Methyl N-{(3S)-3-[({3-(4-chlorophenyl)-5-oxo-4-[(2S)-3,3,3-trifluoro-2-hydroxypropyl]-4,5-dihydro-1H-1,2,4-triazol-1-yl}acetyl)amino]-3-[3-(trifluoromethyl)phenyl]propanoyl}-2-methylalaninate], for which the IC50 amounted to 0.0328 µM on human V1a receptor and 0.0386 µM on human V2 receptor.
The matching figures for `CCOC(=O)C1(NC(=O)C(NC(=O)Cn2nc(-c3ccc(Cl)cc3)n(C[C@H](O)C(F)(F)F)c2=O)c2cccc(C(F)(F)F)c2)CC1` (stereo partly drawn) [Example 1, Ethyl 1-({[({3-(4-chlorophenyl)-5-oxo-4-[(2S)-3,3,3-trifluoro-2-hydroxypropyl]-4,5-dihydro-1H-1,2,4-triazol-1-yl}acetyl)amino][3-(trifluoromethyl)phenyl]acetyl}amino)cyclopropanecarboxylate]: 0.0092 µM and 0.058 µM.
In the case of `O=C(Cn1nc(-c2ccc(Cl)cc2)n(C[C@H](O)C(F)(F)F)c1=O)NC(C(=O)NCCO)c1cccc(C(F)(F)F)c1` (stereo partly drawn) [Example 49, 2-[({3-(4-Chlorophenyl)-5-oxo-4-[(2S)-3,3,3-trifluoro-2-hydroxypropyl]-4,5-dihydro-1H-1,2,4-triazol-1-yl}acetyl)amino]-N-(2-hydroxyethyl)-2-[3-(trifluoromethyl)phenyl]acetamide], the IC50 on human V1a receptor was found to be 0.0022 µM; at human V2 receptor, 0.0076 µM.
`CC(C)(NC(=O)C(NC(=O)Cn1nc(-c2ccc(Cl)cc2)n(Cc2ccccc2F)c1=O)c1ccccc1Cl)C(N)=O` (racemic) [Example 33, N^2-[(2-Chlorophenyl)({[3-(4-chlorophenyl)-4-(2-fluorobenzyl)-5-oxo-4,5-dihydro-1H-1,2,4-triazol-1-yl]acetyl}amino)acetyl]-2-methylalaninamide]: the results for the IC50 at human V1a receptor and on human V2 receptor were 0.017 µM and 1.05 µM, respectively.
The matching figures for `CCOC(=O)C1(NC(=O)C(NC(=O)Cn2nc(-c3ccc(Cl)cc3)n(C3CC3)c2=O)c2cccc(C(F)(F)F)c2)CC1` (racemic) [Example 5, Ethyl 1-({({[3-(4-chlorophenyl)-4-cyclopropyl-5-oxo-4,5-dihydro-1H-1,2,4-triazol-1-yl]acetyl}-amino) [3-(trifluoromethyl)phenyl]acetyl}amino)cyclopropanecarboxylate]: 0.042 µM and 1.17 µM.
Turning to `COC(=O)CCNC(=O)C(NC(=O)Cn1nc(-c2ccc(Cl)cc2)n(C2CC2)c1=O)c1cccc(C(F)(F)F)c1` (racemic) [Example 15, Methyl N-{({[3-(4-chlorophenyl)-4-cyclopropyl-5-oxo-4,5-dihydro-1H-1,2,4-triazol-1-yl]acetyl}-amino) [3-(trifluoromethyl)phenyl]acetyl}-beta-alaninate], the IC50 was 0.012 µM at human V1a receptor and 0.31 µM on human V2 receptor.
As for `O=C(Cn1nc(-c2ccc(Cl)cc2)n(C[C@H](O)C(F)(F)F)c1=O)NC(C(=O)NC1(C(=O)O)CC1)c1cccc(C(F)(F)F)c1` (single isomer, unassigned) [Example 4], the results for the IC50 at human V1a receptor and on human V2 receptor were 0.0019 µM and 0.0041 µM, respectively.
The matching figures for `COCCNC(=O)C(NC(=O)Cn1nc(-c2ccc(Cl)cc2)n(C[C@H](O)C(F)(F)F)c1=O)c1ccccc1C(F)(F)F` (stereo partly drawn) [Example 56, 2-[({3-(4-Chlorophenyl)-5-oxo-4-[(2S)-3,3,3-trifluoro-2-hydroxypropyl]-4,5-dihydro-1H-1,2,4-triazol-1-yl}acetyl)amino]-N-(2-methoxyethyl)-2-[2-(trifluoromethyl)phenyl]acetamide]: 0.003 µM and 0.144 µM.
As to `COCCNC(=O)C[C@H](NC(=O)Cn1nc(-c2ccc(Cl)cc2)n(C[C@H](O)C(F)(F)F)c1=O)c1cccc(C(F)(F)F)c1` [Example 57, (3S)-3-[({3-(4-Chlorophenyl)-5-oxo-4-[(2S)-3,3,3-trifluoro-2-hydroxypropyl]-4,5-dihydro-1H-1,2,4-triazol-1-yl}acetyl)amino]-N-(2-methoxyethyl)-3-[3-(trifluoromethyl)phenyl]propanamide], the IC50 on human V1a receptor came to 0.0145 µM; at human V2 receptor, 0.0074 µM.
